Assay results reported in publication PMC9969396, “Development of Human Carbonic Anhydrase II Heterobifunctional Degraders” (Journal of Medicinal Chemistry, 2023).
Read-outs that look alike come from different tables or passages of the source.

Key:
hCAII [1] = biological target: T1, hCAII (Homo sapiens, UniProt P00918); experiment: colorimetric p-nitrophenyl acetate hCAII activity assay; assay type: biochemical
T1 construct: made in house; host or cells: Escherichia coli BL21(DE3), pACA plasmid (gift from Carol A. Fierke)
Method: To verify that the p-sulfamoyl benzamide MBP retained its binding following ligation with the linker and bulky recruiting group moieties, the inhibition activity of each degrader candidate was determined using a colorimetric p-nitrophenol acetate hCAII activity assay.[46] In short, recombinantly expressed hCAII was preincubated with the degrader candidate before the addition of p-nitrophenyl acetate, a substrate that upon enzymatic cleavage leads to acetic acid and p-nitrophenolate.
Recombinant hCAII was expressed and purified according to the protocol reported in the Supporting Information. […] Wells were prepared to a final volume of 100 μL per well, including buffer (50 mM HEPES, pH 8.0), enzyme (hCAII, 40 nM), inhibitor (varying concentrations), and substrate (p-nitrophenyl acetate, 500 μM). Inhibitors and protein were preincubated for 10 min at rt, and the substrate was added to the reaction mixture immediately before reading. […] The rate of absorbance for each replicate was corrected for substrate autohydrolysis and inherent inhibitor absorbance by subtracting the rate of absorbance from a blank sample lacking enzyme but containing the inhibitor and substrate. Samples lacking inhibitor but containing enzyme and substrate were used to define 100% hCAII activity. Samples lacking inhibitor and enzyme were used to define 0% hCAII activity. IC50 was determined using non-linear regression with a variable slope on the GraphPad Prism software.

hCAII [2] = biological target: T2, hCAII (Homo sapiens, UniProt P00918+Q96SW2); experiment: nine-point dose response hCAII degradation assay in HEK293 cells, western blot; assay type: cell-based; conditions: 24 h; for Dmax: HEK293, HEK293 cells, read-out: DMax (maximum percentage of degradation); for hook effect (attenuation of target degradation at high concentration): doses up to 15 μM
T2 construct: HEK293 cells, a line known to abundantly express hCAII; endogenous in cells; host or cells: HEK293
Method: Three biological replicates of HEK293 cells were dosed in parallel with 4 or 5 at concentrations ranging from 5 pM to 15 μM for 24 h prior to lysis. […] This phenomenon can be attributed to the binary complexes of degrader-POI and degrader-E3 ligase outcompeting the POI-degrader-E3 ligase ternary complex at high degrader concentrations. […] The half-maximal degradation (DC50 value reported as a 95% confidence interval) and maximum percentage of degradation (DMax) of each active degrader were determined using a least squares sigmoidal fitting of the degradation activity of dosing concentrations below the observable “hook effect” (Figure 2B).
Figure 3 Dose-dependent degradation of hCAII by 4 and 5. (A) Western blot images of HEK293 cells dosed for 24 h with degrader 4 (left) or 5 (right) at concentrations of 5 pM to 15 μM. (B) Dose response curves of hCAII abundance as a percent of DMSO vehicle for 4 (left) or 5 (right). Band intensities of blots from three biological replicates were quantified using ImageJ software (Experimental Section). Data were normalized to a vehicle-treated (DMSO) group and plotted as a sigmoidal curve. Nonlinear fitting of log([inhibitor]) vs response (three parameters) was generated for 4 with R^2 = 0.955 and 5 with R^2 = 0.855 in GraphPad Prism. Points marked with an asterisk indicate only two biological replicates. In all other cases, error bars represent the standard deviation of triplicate experiments. Full images of the western blots are provided in the Supporting Information (Figures S1 and S3).
Given the inactivity of 1–3 and increased potency of 4 over 5, a 12-atom linker appeared to be a preferred length for favorable ternary complex formation in the heterobifunctional degraders tested. To further examine the role of linker length and composition, we explored hydrocarbon linkers for their ability to improve degrader lipophilicity and membrane permeability without impacting the favorable ternary complex formation. […] Western blot analysis and quantification of three biological replicates identified the degradation of hCAII at concentrations of 11 as low as 50 pM and achieved near-complete hCAII degradation at concentrations of 5 nM (Figures 5A and S3).
After reaching 90% confluency, HEK293 cells were trypsinized, counted, and plated with 2 mL media at 2 × 10^6 cells per well on a tissue-culture-treated, 6-well plate. At the appropriate number of hours before reaching ∼90% confluency, cells were treated with DMSO solutions of the appropriate compounds (final concentration 0.5% DMSO per well). Upon reaching 90% confluency, typically 72 h, culture media were removed and the cells were washed with cold Dulbecco’s phosphate-buffered saline (DPBS). Lysis buffer, composed of cell lysis buffer (Cell Signaling Technology, 9803), protease inhibitor cocktail (Cell Signaling Technology, 5872), and 1 mM phenylmethylsulfonylfluoride, was added to each well, and the plates were rocked at 4 °C for 20 min. Cells were then scraped from the bottom of the plates, and the supernatant was collected after spinning down at 14,000g at 4 °C for 10 min and frozen at −80 °C. Lysates were thawed on ice, and the total protein concentration was measured using a Pierce bicinchoninic acid protein assay (Thermo Fisher Scientific, 23225). […] Following heating at 98 °C for 5 min and cooling to room temperature, the prepared samples were electrophoretically separated on a 4–20% TGX gel (Bio-Rad, 4568095) and transferred to a PVDF membrane (Amersham Hybond P 0.45 μm, 106000019) in a tris-glycine transfer buffer (Thermo Fisher Scientific, LC3675) with a 20% final MeOH concentration. The membrane was rocked at 4 °C with fluorescent blocking buffer (Thermo Fisher Scientific, 37565) for 1 h and then incubated with primary antibodies (hCAII Rabbit mAb, 1:1000 and β-actin Rabbit pAb, 1:2000 in fluorescent blocking buffer) at 4 °C overnight. […]

[3] = enzyme concentration of 40 nM, read-out: IC50, below the detection limit of the assay
[4] = recombinant hCAII 40 nM, p-nitrophenyl acetate 500 μM, pH 8.0, 95% confidence interval, read-out: IC50 (nM), hCAII inhibition activity (Table S1)

SMILES | IC50 (hCAII [1]; [3]) [nM] | IC50 (hCAII [1]; [4]) [nM] | Dmax (hCAII [2]) [%] | DMax (maximum percentage of degradation) (hCAII [2]; HEK293 cells) [%] | concentration of maximum degradation (hCAII [2]; HEK293 cells) [µM] | hook effect (attenuation of target degradation at high concentration) (hCAII [2]; HEK293 cells) | DC50 (hCAII [2]; HEK293 cells, 5 pM to 15 μM, 95% confidence interval, read-out: DC50 (half-maximal degradation)) [µM]
NS(=O)(=O)c1ccc(C(=O)NCCCOCCOCCOCCCNc2cccc3c2C(=O)N(C2CCC(=O)NC2=O)C3=O)cc1 (stereo not drawn) [Compound 5, N-(3-(2-(2-(3-((2-(2,6-Dioxopiperidin-3-yl)-1,3-dioxoisoindolin-4-yl)amino)propoxy)ethoxy)ethoxy)propyl)-4-sulfamoylbenzamide] | ≤ 20 | ≤ 20 | 86 | 96 | 5 | hook effect | –
NS(=O)(=O)c1ccc(C(=O)NCCCOCCCCOCCCNc2cccc3c2C(=O)N(C2CCC(=O)NC2=O)C3=O)cc1 (stereo not drawn) [Compound 4, N-(3-(4-(3-((2-(2,6-Dioxopiperidin-3-yl)-1,3-dioxoisoindolin-4-yl)amino)propoxy)butoxy)propyl)-4-sulfamoylbenzamide] | ≤ 20 | ≤ 20 | 96 | – | 0.5 | hook effect | 0.005 ± 0.003
